US7297344B1, “Preparations for the promotion of wound healing in the upper respiratory tract and/or ear” (priority 1999, dated 2007)

System: Human ciliated epithelium cells
Test: in-vitro ciliary vibration (ciliary activity) test
Format: cell-based
Procedure: The corresponding cells were exposed and incubated with 100 μl test substance at a temperature of 37° C.

N=C(NCCCCCCNC(=N)NC(=N)Nc1ccc(Cl)cc1)NC(=N)Nc1ccc(Cl)cc1 [chlorohexidine]
ciliary activity / ciliary vibration: decrease of the measured ciliary vibration
